{"source": "paper PMC8151848", "about": "“Tambjamines and Prodiginines: Biocidal Activity against Trypanosoma cruzi” (Pharmaceutics, 2021)", "key": {"[1]": {"test": "Cytotoxicity assay (resazurin) in Hep G2 cells", "type": "cell-based, human", "settings": "human, n = 9; for cytotoxicity at 24 h, 1 µM: Hep G2, 1 µM, read-out: Cytotoxicity (% cell growth inhibition) at 1 µM ± SD; for cytotoxicity at 24 h, 10 µM: Hep G2, 10 µM, read-out: Cytotoxicity (% cell growth inhibition) at 10 µM ± SD; for cytotoxicity at 24 h, 100 µM: Hep G2, 100 µM, read-out: Cytotoxicity (% cell growth inhibition) at 100 µM ± SD", "text": "Mouse L-929 fibroblasts (NCTC clone 929, ECACC 88102702) were used for both drug toxicity and infection assays. Cell line was obtained from Dr. Concepció Soler, Dept. Pathology & Experimental therapeutics, Faculty of Medicine and Health Sciences, University of Barcelona, Spain. Human hepatocarcinoma Hep G2 cells (American Type Culture Collection (ATCC HB-8065)) were employed only in the drug toxicity assays and were obtained from Dr. Neus Agell, Cell Biology Research Group, Faculty of Medicine and Health Sciences, University of Barcelona, Spain.\nCells were seeded by trypsinization in 96-well microplates (L-929: 4 × 10^3 cells/well; Hep G2: 1.5 × 10^4 cells/well) and incubated for 24 h at 37 °C to allow cell attachment. On the following day, the medium was discarded and replaced with a fresh medium containing the different concentrations of the drugs. […] Medium, growth, and drug blanks were used in each test as controls. Plates were incubated again for another 24 h. After treatment, 20 µL of resazurin diluted in 1X phosphate-buffered saline (PBS; Sigma Aldrich) was added at a final concentration of 70 µM. The plates were incubated for another 24 h, after which fluorescence was measured in a microplate reader (FLUOstar OPTIMA, BMG LABTECH GmbH, Ortenberg, Germany) at an excitation wavelength of 530 nm and an emission wavelength of 590 nm. Each concentration was tested in triplicate and the experiments were repeated three times independently. Results indicated the percentage of toxicity (% T value). (3) % Toxicity=100−(AE−AEB)/(AC−ACB)×100 where AE is the absorbance of the experimental group, AEB the absorbance of the drug blank, AC the absorbance of the untreated cells, and ACB the absorbance of the culture medium blank. […]"}, "[2]": {"system": "intact epimastigotes of T. cruzi", "test": "Oxygen consumption inhibition analysis (high-resolution respirometry)", "type": "cell-based, Trypanosoma cruzi", "settings": "for % Oxygen Uptake Inhibition (¾ IC50): compound at ¾ IC50; for effect on respiratory inhibition (in words): ½ and ¾ IC50", "method": "Intact epimastigotes were collected by centrifugation, washed twice in PBS, and resuspended with respiration buffer containing 125 mM sucrose, 65 mM KCL, 10 mM Tris-HCl (pH 7.2), 1 mM […], and 2.5 mM K2PO4. They were then added to a final concentration of 25 × 10^6 cells/mL.\nTo evaluate the effect of the different drugs on mitochondrial function, we measured mitochondrial respiration in the cells before and after the addition of increasing volumes of the compounds. Each compound was added in titrations until reaching concentrations of ½ and ¾ IC50. Finally, antimycin A (AA) was added to determine the residual oxygen consumption (ROX) through the inhibition of complex III of the electron transport chain. The ROX value was subtracted from the O2 flux as a baseline for all the respiratory states.\nMitochondrial respiration was measured by high-resolution respirometry (OROBOROS Oxygraph-2k; OROBOROS Instruments, Innsbruck, Austria). Data were analyzed by using the Software DatLab Online Data Acquisition and Analysis (OROBOROS Instruments, Innsbruck, Austria). All respirometry assays were performed at a constant temperature of 28 °C, with the volume of each chamber being 2 mL. The oxygen flux values are expressed relative to the cell concentration per second (pmol/sec/10^6 cells). The effect of each compound on mitochondrial function is shown as the percentage of inhibition of oxygen flux."}, "[3]": {"system": "epimastigotes of T. cruzi", "test": "Epimastigote susceptibility assay (combined therapy with benznidazole)", "type": "cell-based, Trypanosoma cruzi", "settings": "combination of benznidazole with compound at 0.25x IC50", "method": "To assess the anti-epimastigote effect of the compounds in combination with benznidazole, fixed concentrations of each compound were added to a 96-well microplate previously filled with serial dilutions of benznidazole (0.06–128 µM). These fixed concentrations were calculated based on the IC50 values previously obtained for each drug and corresponded to 4x IC50, 2x IC50, IC50, 0.75x IC50, 0.5x IC50, 0.25x IC50. Each well was inoculated with 100 µL of the epimastigotes (2.5 × 10^5/mL) obtained from the exponential growth phase and the plates were incubated for 72 h at 28 °C. Drug blanks, medium, and growth wells were included in each assay as controls. Afterward, 50 µL of CPRG diluted in 0.9% Triton X-100 solution were added at a final concentration of 200 µM and the plates were returned to the incubator for another 3 h at 37 °C. After incubation, absorbance was read at 595 nm and the data were analyzed. All experiments were repeated at least two times independently and each combination was tested in duplicate.\nThe results are expressed as the IC50 values obtained with each drug combination. To evaluate the interaction of benznidazole with these compounds, fractional inhibitory concentration (FIC) values were calculated as follows:\nFIC of compound A (FIC A) = IC50 of A in combination/IC50 of A alone; while FIC of compound B (FIC B) = IC50 of B in combination/IC50 of B alone.\nFinally, the FIC index (FICi) was calculated as the sum of FICs using the following formula: FICi=FIC A+FIC B\nFICi values were interpreted according to the criteria established by Simoes-Silva et al.: FICi ≤ 0.5 indicates synergism; FICi > 0.5 and ≤ 4 indicates an additive interaction (no interaction); and FICi > 4 indicates antagonism."}, "[4]": {"settings": "Hep G2 hepatocarcinoma cells (ATCC HB-8065)"}}, "note": "Entries after “also recorded” stand apart in the source; their conditions may differ. Where two headings read alike, the source gives them in different places.", "data": [{"smiles": "COC1=CC(c2cc3ccccc3[nH]2)=N/C1=C\\c1[nH]c(C)cc1C", "note": "[Obatoclax, reference compound]", "values": [{"measurement": "cytotoxicity at 24 h, 1 µM", "setting": "[1]; [4]", "result": "10.4 ± 4.8", "unit": "%"}, {"measurement": "cytotoxicity at 24 h, 10 µM", "setting": "[1]; [4]", "result": "63.3 ± 16.9", "unit": "%"}, {"measurement": "cytotoxicity at 24 h, 100 µM", "setting": "[1]; [4]", "result": "74.8 ± 4.06", "unit": "%"}, {"measurement": "% Oxygen Uptake Inhibition (½ IC50)", "setting": "[2]; compound at ½ IC50", "result": 0, "unit": "%"}, {"measurement": "Oxygen Uptake (pmol/sec/Million Cells)", "setting": "[2]; compound at ½ IC50, n = 4", "result": "2.69 ± 0", "unit": "pmol/sec/Million Cells"}, {"measurement": "% Oxygen Uptake Inhibition (¾ IC50)", "setting": "[2]", "result": 0, "unit": "%"}, {"measurement": "Oxygen Uptake (pmol/sec/Million Cells)", "setting": "[2]; compound at ¾ IC50, n = 4", "result": "2.69 ± 0", "unit": "pmol/sec/Million Cells"}, {"measurement": "effect on respiratory inhibition (in words)", "setting": "[2]", "result": "little or no effect"}, {"measurement": "FICi", "setting": "[3]", "result": 1.80}]}, {"smiles": "CCCCCC1=C/C(=C/c2[nH]c(-c3ccc[nH]3)cc2OC)N=C1C", "note": "[Natural prodigiosin, prodigiosin]", "values": [{"measurement": "% Oxygen Uptake Inhibition (½ IC50)", "setting": "[2]; compound at ½ IC50", "result": 72.8, "unit": "%"}, {"measurement": "% Oxygen Uptake Inhibition (½ IC50)", "setting": "[2]; compound at ½ IC50, listed as natural prodigiosin", "result": 73, "unit": "%"}, {"measurement": "Oxygen Uptake (pmol/sec/Million Cells)", "setting": "[2]; compound at ½ IC50, n = 4", "result": "0.73 ± 0.06", "unit": "pmol/sec/Million Cells"}, {"measurement": "FICi", "setting": "[3]", "result": 0.81}]}, {"smiles": "CCc1c(-c2ccc[nH]2)[nH]c(/C=N/C2CCCCC2)c1C", "note": "[MM3]", "values": [{"measurement": "cytotoxicity at 24 h, 1 µM", "setting": "[1]; [4]", "result": "0.99 ± 0.92", "unit": "%"}, {"measurement": "cytotoxicity at 24 h, 10 µM", "setting": "[1]; [4]", "result": "24.9 ± 8.92", "unit": "%"}, {"measurement": "cytotoxicity at 24 h, 100 µM", "setting": "[1]; [4]", "result": "94.36 ± 0.5", "unit": "%"}, {"measurement": "% Oxygen Uptake Inhibition (½ IC50)", "setting": "[2]; compound at ½ IC50", "result": 41.26, "unit": "%"}, {"measurement": "Oxygen Uptake (pmol/sec/Million Cells)", "setting": "[2]; compound at ½ IC50, n = 4", "result": "1.58 ± 0.05", "unit": "pmol/sec/Million Cells"}, {"measurement": "% Oxygen Uptake Inhibition (¾ IC50)", "setting": "[2]", "result": 42, "unit": "%"}, {"measurement": "Oxygen Uptake (pmol/sec/Million Cells)", "setting": "[2]; compound at ¾ IC50, n = 4", "result": "1.56 ± 0.06", "unit": "pmol/sec/Million Cells"}, {"measurement": "FICi", "setting": "[3]", "result": 0.79}]}, {"smiles": "O=C(Cn1ccnc1[N+](=O)[O-])NCc1ccccc1", "note": "[Benznidazole, reference compound]", "values": [{"measurement": "cytotoxicity at 24 h, 1 µM", "setting": "[1]; [4]", "result": 0, "unit": "%"}, {"measurement": "cytotoxicity at 24 h, 10 µM", "setting": "[1]; [4]", "result": "0.44 ± 0.61", "unit": "%"}, {"measurement": "cytotoxicity at 24 h, 100 µM", "setting": "[1]; [4]", "result": "0.18 ± 0.08", "unit": "%"}]}, {"smiles": "CCc1c(-c2ccc[nH]2)[nH]c(/C=N/c2ccc(C(C)(C)C)cc2)c1C", "note": "[MM4]", "values": [{"measurement": "cytotoxicity at 24 h, 1 µM", "setting": "[1]; [4]", "result": 0, "unit": "%"}, {"measurement": "cytotoxicity at 24 h, 10 µM", "setting": "[1]; [4]", "result": "19.1 ± 3.94", "unit": "%"}, {"measurement": "cytotoxicity at 24 h, 100 µM", "setting": "[1]; [4]", "result": "85.2 ± 9.91", "unit": "%"}, {"measurement": "% Oxygen Uptake Inhibition (½ IC50)", "setting": "[2]; compound at ½ IC50", "result": 2.60, "unit": "%"}, {"measurement": "Oxygen Uptake (pmol/sec/Million Cells)", "setting": "[2]; compound at ½ IC50, n = 4", "result": "2.62 ± 0.04", "unit": "pmol/sec/Million Cells"}, {"measurement": "% Oxygen Uptake Inhibition (¾ IC50)", "setting": "[2]", "result": 2.97, "unit": "%"}, {"measurement": "Oxygen Uptake (pmol/sec/Million Cells)", "setting": "[2]; compound at ¾ IC50, n = 4", "result": "2.61 ± 0.04", "unit": "pmol/sec/Million Cells"}, {"measurement": "effect on respiratory inhibition (in words)", "setting": "[2]", "result": "little or no effect; also recorded: no inhibitory effect"}, {"measurement": "FICi", "setting": "[3]", "result": 0.70}]}, {"smiles": "CCCCCC1=C/C(=C/c2[nH]c(-c3ccc[nH]3)cc2OC)N=C1C", "note": "[Synthetic prodigiosin, prodigiosin]", "values": [{"measurement": "cytotoxicity at 24 h, 10 µM", "setting": "[1]", "result": "90.5 ± 0.82", "unit": "%"}, {"measurement": "cytotoxicity at 24 h, 100 µM", "setting": "[1]", "result": "95.2 ± 0.94", "unit": "%"}, {"measurement": "% Oxygen Uptake Inhibition (½ IC50)", "setting": "[2]; compound at ½ IC50", "result": 13.58, "unit": "%"}, {"measurement": "Oxygen Uptake (pmol/sec/Million Cells)", "setting": "[2]; compound at ½ IC50, n = 4", "result": "2.33 ± 0.09", "unit": "pmol/sec/Million Cells"}, {"measurement": "% Oxygen Uptake Inhibition (¾ IC50)", "setting": "[2]", "result": 35.18, "unit": "%"}, {"measurement": "Oxygen Uptake (pmol/sec/Million Cells)", "setting": "[2]; compound at ¾ IC50, n = 4", "result": "1.74 ± 0.17", "unit": "pmol/sec/Million Cells"}, {"measurement": "FICi", "setting": "[3]", "result": 0.73}]}]}
